Reference: ChEMBL document CHEMBL5726023, “Fused azaheterocyclic compounds and their use as AMPA receptor modulators” (2018)

Experiment: Calcium Flux Assay: An in vitro assay was used to determine the potency of test compounds as inhibitors of the glutamate response of the channel formed by GluA1o-γ8. To ensure a 1:1 stoichiometry of GluA1o and γ8 subunits in the expressed channel, a fusion of the cDNAs for GRIA1o and CACNG8 was used. Following Shi et al (2009) The stoichiometry of AMPA receptors and TARPs varies by neuronal cell type. Neuron 62(5): 633-640), the C-terminus of the cDNA for GRIA1o was fused to the N-terminus of the cDNA for γ8. The linker sequence was QQQQQQQQQQEFAT. Channels expressed with this construct appear to have similar properties to channels formed by co-expression of GRIA1o with an excess of CACNG8 (Shi et al. 2009). A clonal cell line in HEK293 cells stably expressing this construct, with a geneticin selection marker, was generated for use in this assay.Cell expressing the GRIA1o-CACNG8 fusion construct were grown in a monolayer in 96- or 384-well microtiter plates. They were washed with assay buffer (135 mM NaCl, 4 mM KCl, 3 mM CaCl2, 1 mM MgCl2, 5 mM glucose, 10 mM HEPES, pH 7.4, 300 mOs) using a Biotek EL405 plate washer. The cells were then loaded with a calcium-sensitive dye (Calcium-5 or Calcium-6, Molecular Devices) and the test compounds at a range of concentrations. […]
Format: cell-based

## Cc1cc(-c2c(C(F)(F)F)ccn3cc(C(C)C)nc23)cc2cn[nH]c12
  IC50: 100 pM
